SMILES strings stand for the structures.

hMC2 receptor, sequence (Q01718 whole entry): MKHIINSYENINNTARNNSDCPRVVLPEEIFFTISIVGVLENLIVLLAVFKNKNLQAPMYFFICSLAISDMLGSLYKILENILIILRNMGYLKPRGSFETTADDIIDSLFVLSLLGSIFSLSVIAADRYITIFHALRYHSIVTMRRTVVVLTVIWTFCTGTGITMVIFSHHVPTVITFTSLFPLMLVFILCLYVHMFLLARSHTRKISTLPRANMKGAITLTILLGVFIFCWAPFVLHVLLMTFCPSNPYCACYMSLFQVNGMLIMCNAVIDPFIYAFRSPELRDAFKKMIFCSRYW
hMC2 receptor, sequence (Q8TCY5 whole entry partner): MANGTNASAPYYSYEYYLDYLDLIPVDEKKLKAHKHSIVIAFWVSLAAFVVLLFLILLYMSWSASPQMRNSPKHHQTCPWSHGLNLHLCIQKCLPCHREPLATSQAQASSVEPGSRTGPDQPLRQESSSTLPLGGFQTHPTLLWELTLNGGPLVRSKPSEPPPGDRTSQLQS

The target in the test is hMC2 receptor (Homo sapiens, UniProt Q01718). In words: hMC2 membrane binding assay ([125I]ACTH (1-39) Tyr23, SPA). Set-up: scale not given here. The conditions noted are these: crude hMC2R membranes from CRE-bla-CHO-K1 cells expressing hMC2 receptor and hMRAP; [125I]ACTH (1-39) Tyr23 0.2 nM; 1.5 hours at room temperature; read-out: MC2R binding potency. The method in brief:
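CRE-bla-CHO-K1 membranes co-expressing hMC2 receptor and hMRAP, preincubated with WGA PVT SPA beads in pH 7.4 HEPES/MgCl2/CaCl2/0.2% BSA buffer. Compounds (typically 0–10,000 nM final) compete with 0.2 nM [125I]ACTH(1-39) Tyr23 for 1.5 h at room temperature. SPA counts give Ki by non-linear regression.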
`CCOc1ccc(C(=O)N2CCN(c3ccc(-c4ccccc4OCC)nc3C(=O)NC3CN(C)C3)[C@H](CC)C2)c(C(F)(F)F)n1` [Compound 1-237, 3-[(2R)-4-[6-ethoxy-2-(trifluoromethyl)pyridine-3-carbonyl]-2-ethylpiperazin-1-yl]-6-(2-ethoxyphenyl)-N-(1-methylazetidin-3-yl)pyridine-2-carboxamide]: the Ki is less than 10 nM.

Regarding `CCOc1ncccc1-c1ccc(N2CCN(C(=O)c3ccc(OC)nc3C(F)(F)F)C[C@H]2CC)c(C(=O)NC2CN(C)C2)n1` [Compound 1-230, 2′-ethoxy-5-[(2R)-2-ethyl-4-[6-methoxy-2-(trifluoromethyl)pyridine-3-carbonyl]piperazin-1-yl]-N-(1-methylazetidin-3-yl)-[2,3′-bipyridine]-6-carboxamide], the Ki is less than 10 nM.

Turning to `CCOc1ncccc1-c1ccc(N2CCN(C(=O)C34CCC(C(F)(F)F)(CC3)C4)C[C@H]2CC)c(C(=O)NCC2CN(C)C2)n1` [Compound 1-395, 2′-ethoxy-5-[(2R)-2-ethyl-4-[4-(trifluoromethyl)bicyclo[2.2.1]heptane-1-carbonyl]piperazin-1-yl]-N-[(1-methylazetidin-3-yl)methyl]-[2,3′-bipyridine]-6-carboxamide], the Ki is less than 10 nM.

Take `CCOc1ncccc1-c1ccc(N2CCN(C(=O)c3ccc(Cl)cc3C(F)(F)F)C[C@H]2CC)c(C(=O)NCC2=NCCN2)c1F` [Compound 1-188, 6-[(2R)-4-[4-chloro-2-(trifluoromethyl)benzoyl]-2-ethylpiperazin-1-yl]-N-[(4,5-dihydro-1H-imidazol-2-yl)methyl]-3-(2-ethoxypyridin-3-yl)-2-fluorobenzamide]: the Ki is less than 10 nM. Next, `CC[C@@H]1CN(C(=O)c2ccc(C(F)(F)F)cc2Cl)CCN1c1ccc(-c2ccccc2Cl)cc1C(=O)NCCN` [Compound 1-6, N-(2-aminoethyl)-2′-chloro-4-[(2R)-4-[2-chloro-4-(trifluoromethyl)benzoyl]-2-ethylpiperazin-1-yl]-[1,1′-biphenyl]-3-carboxamide]: 10 to 100 nM; `CCOc1ncccc1-c1ccc(N2CCN(C(=O)C3(C(F)(F)F)CCCC3)C[C@H]2CC)c(C(=O)NC[C@H]2CCN2)n1` [Compound 1-327, N-{[(2R)-azetidin-2-yl]methyl}-2′-ethoxy-5-[(2R)-2-ethyl-4-[1-(trifluoromethyl)cyclopentanecarbonyl]piperazin-1-yl]-[2,3′-bipyridine]-6-carboxamide]: less than 10 nM. As to `CCOc1ccccc1-c1ccc(N2CCN(C(=O)c3ccc(OC)nc3C(F)(F)F)C[C@H]2CC)c(C(=O)NC2CN(C)C2)n1` [Compound 1-236, 6-(2-ethoxyphenyl)-3-[(2R)-2-ethyl-4-[6-methoxy-2-(trifluoromethyl)pyridine-3-carbonyl]piperazin-1-yl]-N-(1-methylazetidin-3-yl)pyridine-2-carboxamide], the Ki was less than 10 nM.

On to `CCOc1ncccc1-c1ccc(N2CCN(C(=O)c3ccc(Cl)cc3C(F)(F)F)C[C@H]2CC)c(C(=O)N[C@H]2CCCNC2)c1` [Compound 1-100, 2-[(2R)-4-[4-chloro-2-(trifluoromethyl)benzoyl]-2-ethylpiperazin-1-yl]-5-(2-ethoxypyridin-3-yl)-N-[(3 S)-piperidin-3-yl]benzamide], for which the Ki was less than 10 nM.

In the case of `CC[C@@H]1CN(C(=O)c2ccc(C(F)(F)F)cc2Cl)CCN1c1ccc(-c2ccccc2C(=O)NC)cc1C(=O)NCCN` [Compound 1-20, (R)-N3′-(2-aminoethyl)-4′-(4-(2-chloro-4-(trifluoromethyl)benzoyl)-2-ethylpiperazin-1-yl)-N2-methyl-[1,1′-biphenyl]-2,3′-dicarboxamide], the Ki lay in the range of 10 to 100 nM. `CCOc1ncccc1-c1ccc(N2CCN(C(=O)c3ccc(F)cc3C(F)(F)F)C[C@H]2CC)c(C(=O)NCCN)c1` [Compound 1-58, N-(2-aminoethyl)-5-(2-ethoxypyridin-3-yl)-2-[(2R)-2-ethyl-4-[4-fluoro-2-(trifluoromethyl)benzoyl]piperazin-1-yl]benzamide]: the Ki was less than 10 nM. Regarding `CCOc1ccccc1-c1ccc(N2CCN(C(=O)C3(CC(F)(F)F)CCC3)C[C@H]2CC)c(C(=O)N[C@@H]2CCN(C)C2)n1` [Compound 1-349, 6-(2-ethoxyphenyl)-3-[(2R)-2-ethyl-4-[1-(2,2,2-trifluoroethyl)cyclobutanecarbonyl]piperazin-1-yl]-N-[(3R)-1-methylpyrrolidin-3-yl]pyridine-2-carboxamide], the Ki is less than 10 nM. As for `CCOc1ncccc1-c1ccc(N2CCN(C(=O)c3ccc(Cl)cc3C(F)(F)F)C[C@H]2CC)c(C(=O)N[C@@H]2CCNC2)c1F` [Compound 1-72, 6-[(2R)-4-[4-chloro-2-(trifluoromethyl)benzoyl]-2-ethylpiperazin-1-yl]-3-(2-ethoxypyridin-3-yl)-2-fluoro-N-[(3R)-pyrrolidin-3-yl]benzamide], the Ki was less than 10 nM.

Consider `CCOc1ncccc1-c1ccc(N2CCN(C(=O)n3ccc4cccc(Cl)c43)C[C@H]2CC)c(C(=O)N[C@@H]2CCN(C)C2)n1` [Compound 1-428, 5-[(2R)-4-(7-chloro-1H-indole-1-carbonyl)-2-ethylpiperazin-1-yl]-2′-ethoxy-N-[(3R)-1-methylpyrrolidin-3-yl]-[2,3′-bipyridine]-6-carboxamide], for which the Ki is less than 10 nM. The figure for `CCOc1ncccc1-c1ccc(N2CCN(C(=O)c3ccc(Cl)cc3C(F)F)C[C@H]2CC)c(C(=O)N[C@@H]2CCNC2)c1F` [Compound 1-190, 6-[(2R)-4-[4-chloro-2-(difluoromethyl)benzoyl]-2-ethylpiperazin-1-yl]-3-(2-ethoxypyridin-3-yl)-2-fluoro-N-[(3R)-pyrrolidin-3-yl]benzamide] is less than 10 nM. Regarding `CCOc1ncccc1-c1ccc(N2CCN(C(=O)C3(C(F)(F)F)CCC3)C[C@H]2CC)c(C(=O)NC[C@@H]2CCN2C)n1` [Compound 1-390, 2′-ethoxy-5-[(2R)-2-ethyl-4-[1-(trifluoromethyl)cyclobutanecarbonyl]piperazin-1-yl]-N-{[(2S)-1-methylazetidin-2-yl]methyl}-[2,3′-bipyridine]-6-carboxamide], the Ki was 10 to 100 nM. As to `CCOc1ncccc1-c1ccc(N2CCN(C(=O)c3ccc(Cl)cc3C(F)(F)F)C[C@H]2CC)c(C(=O)N[C@H]2CCN(C)C2)n1` [Compound 1-215, 5-[(2R)-4-[4-chloro-2-(trifluoromethyl)benzoyl]-2-ethylpiperazin-1-yl]-2′-ethoxy-N-[(3S)-1-methylpyrrolidin-3-yl]-[2,3′-bipyridine]-6-carboxamide], the Ki is less than 10 nM.

`CCOc1ncccc1-c1ccc(N2CCN(C(=O)c3ccc(Cl)cc3C(F)(F)F)C[C@H]2CC)c(C(=O)N[C@@H]2CCN(C)C2)c1` [Compound 1-48, 2-[(2R)-4-[4-chloro-2-(trifluoromethyl)benzoyl]-2-ethylpiperazin-1-yl]-5-(2-ethoxypyridin-3-yl)-N-[(3R)-1-methylpyrrolidin-3-yl]benzamide]: the Ki is less than 10 nM.

For the compound `CCOc1ncccc1-c1ccc(N2CCN(C(=O)c3ccc(Cl)cc3C(F)(F)F)C[C@H]2CC)c(C(=O)NC[C@H]2COCCN2)c1` [Compound 1-138, 2-[(2R)-4-[4-chloro-2-(trifluoromethyl)benzoyl]-2-ethylpiperazin-1-yl]-5-(2-ethoxypyridin-3-yl)-N-{[(3S)-morpholin-3-yl]methyl}benzamide], the Ki is less than 10 nM.

(Values after patent US10981894B2, “Melanocortin subtype-2 receptor (MC2R) antagonists and uses thereof” (Crinetics Pharmaceuticals, Inc., priority 2018, dated 2021).)
